Assay results from patent US11020395B2, “Cycloalkyl substituted triazole compounds as agonists of the APJ receptor” (AMGEN INC., priority 2016, dated 2021).

target: human APJ receptor (Homo sapiens (Human), UniProt P35414); assay: [35S]GTPγS binding assay on membranes from CHO cells stably expressing human APJ receptor; type: biochemical; settings: [35S]GTPγS SPA, read-out: Activity hAPJ SPA EC50 IP
Summary of the method: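 Agonist-stimulated [35S]GTPγS binding measured on membranes of a stable human APJ CHO line, 90 min at room temperature, with GDP, MgCl2 and NaCl levels optimized beforehand. Means of independent runs fitted by non-linear regression to give EC50.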

Sequence of human APJ receptor (P35414 whole entry): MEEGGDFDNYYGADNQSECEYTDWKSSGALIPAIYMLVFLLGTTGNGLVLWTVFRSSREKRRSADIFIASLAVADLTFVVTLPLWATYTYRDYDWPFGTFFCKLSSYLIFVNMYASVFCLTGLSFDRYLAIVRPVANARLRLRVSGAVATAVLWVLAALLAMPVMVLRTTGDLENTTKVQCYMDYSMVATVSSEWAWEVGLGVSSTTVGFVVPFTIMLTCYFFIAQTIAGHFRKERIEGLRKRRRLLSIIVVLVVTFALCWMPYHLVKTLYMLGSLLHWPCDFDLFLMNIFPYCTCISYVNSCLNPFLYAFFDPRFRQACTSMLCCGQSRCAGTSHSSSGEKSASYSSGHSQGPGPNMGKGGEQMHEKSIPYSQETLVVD

| Compound | EC50 |
| --- | --- |
| COc1cccc(OC)c1-n1c(NS(=O)(=O)[C@@H](C)[C@H](C)c2ncc(C)cn2)nnc1[C@H]1C[C@H](Cl)C1 (single isomer, unassigned) [Example 193.0, (2S,3R)-N-(5-((1r,3S)-3-chlorocyclobutyl)-4-(2,6-dimethoxyphenyl)-4H-1,2,4-triazol-3-yl)-3-(5-methylpyrimidin-2-yl)butane-2-sulfonamide or (2S,3R)-N-(5-((1s,3R)-3-chlorocyclobutyl)-4-(2,6-dimethoxyphenyl)-4H-1,2,4-triazol-3-yl)-3-(5-methylpyrimidin-2-yl)butane-2-sulfonamide] | 10 nM |
| COc1ncnc(OC)c1-n1c(NS(=O)(=O)[C@@H](C)[C@H](OC)c2ncc(Cl)cn2)nnc1C1CC2(CCC2)C1 [Example 184.0, (1R,2S)-1-(5-chloro-2-pyrimidinyl)-N-(4-(4,6-dimethoxy-5-pyrimidinyl)-5-(spiro[3.3]heptan-2-yl)-4H-1,2,4-triazol-3-yl)-1-methoxy-2-propanesulfonamide] | 1.1 nM |
| (1S,2S)-N-(4-(2,6-dimethoxyphenyl)-5-(trans-3-methoxycyclobutyl)-4H-1,2,4-triazol-3-yl)-1-(5-methyl-2-pyrimidinyl)-1-(2-propanyloxy)-2-propanesulfonamide or (1S,2S)-N-(4-(2,6-dimethoxyphenyl)-5-(cis-3-methoxycyclobutyl)-4H-1,2,4-triazol-3-yl)-1-(5-methyl-2-pyrimidinyl)-1-(2-propanyloxy)-2-propanesulfonamide [Example 226.0] | 21 nM |
| COc1ncnc(OC)c1-n1c(NS(=O)(=O)[C@@H](C)[C@H](OC)c2cnc(C)cn2)nnc1C1CCC1 [Example 82.0, (1R,2S)-N-(5-cyclobutyl-4-(4,6-dimethoxy-5-pyrimidinyl)-4H-1,2,4-triazol-3-yl)-1-methoxy-1-(5-methyl-2-pyrazinyl)-2-propanesulfonamide] | 50 nM |
| CO[C@H](c1ncc(Cl)cn1)[C@H](C)S(=O)(=O)Nc1nnc(C2CCC2)n1-c1c(F)cccc1F [Example 94.0, (1R,2S)-1-(5-chloropyrimidin-2-yl)-N-(5-cyclobutyl-4-(2,6-difluorophenyl)-4H-1,24-triazol-3-yl)-1-methoxypropane-2-sulfonamide] | 0.72 nM |
| COc1cccc(OC)c1-n1c(NS(=O)(=O)[C@@H](C)[C@H](OC)c2cnc(C)cn2)nnc1C1CCC1 [Example 138.0] | 27 nM |
| COc1cccc(OC)c1-n1c(NS(=O)(=O)[C@@H](C)[C@H](OC)c2ncc(Cl)cn2)nnc1C1CC(C)(C)C1 [Example 119.0] | 0.79 nM |
| COc1ncnc(OC)c1-n1c(NS(=O)(=O)[C@@H](C)[C@@H](OC(C)C)c2ncc(Cl)cn2)nnc1[C@@H]1CC[C@@H]1C(F)F (single isomer, unassigned) [Example 168.0, (1S,2S)-1-(5-chloropyrimidin-2-yl)-N-(5-((1R,2S)-2-(difluoromethyl)cyclobutyl)-4-(4,6-dimethoxypyrimidin-5-yl)-4H-1,2,4-triazol-3-yl)-1-isopropylpropane-2-sulfonamide or (1S,2S)-1-(5-chloropyrimidin-2-yl)-N-(5-((1S,2R)-2-(difluoromethyl)cyclobutyl)-4-(4,6-dimethoxypyrimidin-5-yl)-4H-1,2,4-triazol-3-yl)-1-isopropoxypropane-2-sulfonamide] | 8 nM |
| COc1cccc(OC)c1-n1c(NS(=O)(=O)[C@@H](C)[C@H](OC)c2ncc(Cl)cn2)nnc1C1CCC1C#N (single isomer, unassigned) [Example 169.0, (1R,2S)-1-(5-chloropyrimidin-2-yl)-N-(5-((1R,2S)-2-cyanocyclobutyl)-4-(2,6-dimethoxyphenyl)-4H-1,2,4-triazol-3-yl)-1-methoxypropane-2-sulfonamide or (1R,2S)-1-(5-chloropyrimidin-2-yl)-N-(5-((1S,2R)-2-cyanocyclobutyl)-4-(2,6-dimethoxyphenyl)-4H-1,2,4-triazol-3-yl)-1-methoxypropane-2-sulfonamide] | 21 nM |
| (1R,2S)-1-(5-chloropyrimidin-2-yl)-N-(4-(2,6-dimethoxyphenyl)-5-((S)-spiro[2.2]pentan-1-yl)-4H-1,2,4-triazol-3-yl)-1-methoxypropane-2-sulfonamide or (1R,2S)-1-(5-chloropyrimidin-2-yl)-N-(4-(2,6-dimethoxyphenyl)-5-((R)-spiro[2.2]pentan-1-yl)-4H-1,2,4-triazol-3-yl)-1-methoxypropane-2-sulfonamide [Example 223.0] | 1.2 nM |
| COc1cccc(OC)c1-n1c(NS(=O)(=O)[C@@H](C)[C@H](C)c2ncc(C)cn2)nnc1[C@H]1C[C@H](Cl)C1 (single isomer, unassigned) [Example 194.0, (2S,3R)-N-(5-((1r,3S)-3-chlorocyclobutyl)-4-(2,6-dimethoxyphenyl)-4H-1,2,4-triazol-3-yl)-3-(5-methylpyrimidin-2-yl)butane-2-sulfonamide or (2S,3R)-N-(5-((1s,3R)-3-chlorocyclobutyl)-4-(2,6-dimethoxyphenyl)-4H-1,2,4-triazol-3-yl)-3-(5-methylpyrimidin-2-yl)butane-2-sulfonamide] | 2.5 nM |
| COc1cccc(OC)c1-n1c(NS(=O)(=O)[C@@H](C)[C@H](OC)c2ncc(Cl)cn2)nnc1[C@H]1C[C@H](OC)C1 (single isomer, unassigned) [Example 156.0, (1R,2S)-1-(5-chloropyrimidin-2-yl)-N-(4-(2,6-dimethoxyphenyl)-5-((1r,3S)-3-methoxycyclobutyl)-4H-1,2,4-triazol-3-yl)-1-methoxypropane-2-sulfonamide or (1R,2S)-1-(5-chloropyrimidin-2-yl)-N-(4-(2,6-dimethoxyphenyl)-5-((1s,3R)-3-methoxycyclobutyl)-4H-1,2,4-triazol-3-yl)-1-methoxypropane-2-sulfonamide] | 11 nM |
| (1R,2S)-1-(5-chloropyrimidin-2-yl)-N-(4-(2,6-dimethoxyphenyl)-5-((R)-3-oxocyclopentyl)-4H-1,2,4-triazol-3-yl)-1-methoxypropane-2-sulfonamide or (1R,2S)-1-(5-chloropyrimidin-2-yl)-N-(4-(2,6-dimethoxyphenyl)-5-((S)-3-oxocyclopentyl)-4H-1,2,4-triazol-3-yl)-1-methoxypropane-2-sulfonamide [Example 225.0] | 160 nM |
| COc1cccc(OC)c1-n1c(NS(=O)(=O)[C@@H](C)[C@@H](OC(C)C)c2ncc(C)cn2)nnc1[C@H]1C[C@@](C)(O)C1 (single isomer, unassigned) [Example 231.0, (1S,2S)-N-(4-(2,6-dimethoxyphenyl)-5-(trans-3-hydroxy-3-methylcyclobutyl)-4H-1,2,4-triazol-3-yl)-1-(5-methyl-2-pyrimidinyl)-1-(2-propanyloxy)-2-propanesulfonamide or (1S,2S)-N-(4-(2,6-dimethoxyphenyl)-5-(cis-3-hydroxy-3-methylcyclobutyl)-4H-1,2,4-triazol-3-yl)-1-(5-methyl-2-pyrimidinyl)-1-(2-propanyloxy)-2-propanesulfonamide] | 220 nM |
| COc1cccc(OC)c1-n1c(NS(=O)(=O)[C@@H](C)[C@H](OC)c2ncc(Cl)cn2)nnc1C1CC2(CC2)C1 [Example 239.0, (1R,2S)-1-(5-chloro-2-pyrimidinyl)-N-(4-(2,6-dimethoxyphenyl)-5-(spiro[2.3]hexan-5-yl)-4H-1,2,4-triazol-3-yl)-1-methoxy-2-propanesulfonamide] | 0.64 nM |
| COc1cccc(OC)c1-n1c(NS(=O)(=O)[C@@H](C)[C@H](OC)c2ncc(Cl)cn2)nnc1[C@H]1CCC1(F)F (single isomer, unassigned) [Example 159.0, (1R,2S)-1-(5-chloropyrimidin-2-yl)-N-(5-((R)-2,2-difluorocyclobutyl)-4-(2,6-dimethoxyphenyl)-4H-1,2,4-triazol-3-yl)-1-methoxypropane-2-sulfonamide or (1R,2S)-1-(5-chloropyrimidin-2-yl)-N-(5-((S)-2,2-difluorocyclobutyl)-4-(2,6-dimethoxyphenyl)-4H-1,2,4-triazol-3-yl)-1-methoxypropane-2-sulfonamide] | 8 nM |
| COCC1(n2c(NS(=O)(=O)[C@@H](C)[C@H](OC)c3ncc(Cl)cn3)nnc2C2CCC2)CC1 [Example 96.0] | 30 nM |
| COc1ncnc(OC)c1-n1c(NS(=O)(=O)[C@@H](C)[C@H](OC)c2ncc(Cl)cn2)nnc1C1CC1 [Example 24.0, (1R,2S)-1-(5-chloropyrimidin-2-yl)-N-(5-cyclopropyl-4-(4,6-dimethoxypyrimidin-5-yl)-4H-1,2,4-triazol-3-yl)-1-methoxypropane-2-sulfonamide] | 11 nM |
| COc1ncnc(OC)c1-n1c(NS(=O)(=O)[C@@H](C)[C@@H](OC(C)C)c2ncc(C)cn2)nnc1C1CCC1 [Example 83.0, (1S,2S)-N-(5-cyclobutyl-4-(4,6-dimethoxy-5-pyrimidinyl)-4H-1,2,4-triazol-3-yl)-1-(5-methyl-2-pyrimidinyl)-1-(2-propanyloxy)-2-propanesulfonamide] | 6 nM |
| COc1cccc(OC)c1-n1c(NS(=O)(=O)[C@@H](C)[C@@H](OC(C)C)c2ncc(C)cn2)nnc1[C@@H]1CCC(=O)C1 (single isomer, unassigned) [Example 229.0, (1S,2S)-N-(4-(2,6-dimethoxyphenyl)-5-((R)-3-oxocyclopentyl)-4H-1,2,4-triazol-3-yl)-1-isopropoxy-1-(5-methylpyrimidin-2-yl)propane-2-sulfonamide or (1S,2S)-N-(4-(2,6-dimethoxyphenyl)-5-((S)-3-oxocyclopentyl)-4H-1,2,4-triazol-3-yl)-1-isopropoxy-1-(5-methylpyrimidin-2-yl)propane-2-sulfonamide] | 30 nM |
| (1R,2S)-1-(5-chloropyrimidin-2-yl)-N-(4-(4,6-dimethoxypyrimidin-5-yl)-5-((R)-6-oxaspiro[2.5]octan-1-yl)-4H-1,2,4-triazol-3-yl)-1-methoxypropane-2-sulfonamide or (1R,2S)-1-(5-chloropyrimidin-2-yl)-N-(4-(4,6-dimethoxypyrimidin-5-yl)-5-((S)-6-oxaspiro[2.5]octan-1-yl)-4H-1,2,4-triazol-3-yl)-1-methoxypropane-2-sulfonamide [Example 103.0] | 39 nM |
